Reference: PubChem BioAssay AID256 (DTP/NCI, 2004)
Inconclusive results and toxic doses are left out.

System: CD2F1 mice, L1210 leukemia ip, survival T/C
Assay: NCI In Vivo Anticancer Drug Screen. Data for tumor model L1210 Leukemia (intraperitoneal) in CD2F1 (CDF1) mice
Settings: endpoint: mean survival time, higher = longer survival
How it was run: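 Mice carrying a transplanted tumor received test compound or vehicle alone. The value is the measurement in the treated group divided by that in the vehicle-treated control group.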

O=C1CSC(=S)N1c1cccc(C(F)(F)F)c1
T/C (dose: 100.0 mg/kg/injection, schedule: Q01DX009 (ip), vehicle: saline with Tween-80): 97 % of control
T/C (dose: 200.0 mg/kg/injection, schedule: Q01DX009 (ip), vehicle: saline with Tween-80): 112 % of control
T/C (dose: 400.0 mg/kg/injection, schedule: Q01DX009 (ip), vehicle: saline with Tween-80): 101 % of control

Cc1ccc(P(=O)(O)O)c([N+](=O)[O-])c1
T/C (dose: 50.0 mg/kg/injection, schedule: Q04DX003 (ip), vehicle: saline): 105 % of control
T/C (dose: 100.0 mg/kg/injection, schedule: Q04DX003 (ip), vehicle: saline): 95 % of control
T/C (dose: 200.0 mg/kg/injection, schedule: Q04DX003 (ip), vehicle: saline): 105 % of control

CC1C=NNC1=O (stereo unspecified)
T/C (dose: 8.0 mg/kg/injection, schedule: Q03HX016 (ip), vehicle: saline): 101 % of control
T/C (dose: 8.0 mg/kg/injection, schedule: Q03HX024 (ip), vehicle: saline): 96 % of control
T/C (dose: 12.5 mg/kg/injection, schedule: Q01DX009 (ip), vehicle: Klucel (hydroxypropylcellulose) (HPC)): 97 % of control
T/C (dose: 16.0 mg/kg/injection, schedule: Q03HX016 (ip), vehicle: saline): 98 % of control
T/C (dose: 16.0 mg/kg/injection, schedule: Q03HX024 (ip), vehicle: saline): 100 % of control
T/C (dose: 25.0 mg/kg/injection, schedule: Q01DX009 (ip), vehicle: Klucel (hydroxypropylcellulose) (HPC)): 110 % of control
T/C (dose: 32.0 mg/kg/injection, schedule: Q03HX016 (ip), vehicle: saline): 112 % of control
T/C (dose: 32.0 mg/kg/injection, schedule: Q03HX024 (ip), vehicle: saline): 116 % of control
T/C (dose: 50.0 mg/kg/injection, schedule: Q01DX009 (ip), vehicle: Klucel (hydroxypropylcellulose) (HPC)): 111 % of control
T/C (dose: 64.0 mg/kg/injection, schedule: Q01DX009 (ip), vehicle: saline): 109 % of control
T/C (dose: 64.0 mg/kg/injection, schedule: Q03HX016 (ip), vehicle: saline): 110 % of control
T/C (dose: 64.0 mg/kg/injection, schedule: Q03HX024 (ip), vehicle: saline): 108 % of control
T/C (dose: 64.0 mg/kg/injection, schedule: Q04DX003 (ip), vehicle: saline): 103 % of control
T/C (dose: 64.0 mg/kg/injection, schedule: Q08DX002 (ip), vehicle: saline): 102 % of control
T/C (dose: 100.0 mg/kg/injection, schedule: Q01DX009 (ip), vehicle: saline): 117 % of control
T/C (dose: 128.0 mg/kg/injection, schedule: Q01DX009 (ip), vehicle: saline): 118 % of control
T/C (dose: 128.0 mg/kg/injection, schedule: Q04DX003 (ip), vehicle: saline): 103 % of control
T/C (dose: 128.0 mg/kg/injection, schedule: Q08DX002 (ip), vehicle: saline): 101 % of control
T/C (dose: 200.0 mg/kg/injection, schedule: Q01DX009 (ip), vehicle: saline): 123 % of control
T/C (dose: 256.0 mg/kg/injection, schedule: Q04DX003 (ip), vehicle: saline): 110 % of control
T/C (dose: 256.0 mg/kg/injection, schedule: Q08DX002 (ip), vehicle: saline): 102 % of control
T/C (dose: 400.0 mg/kg/injection, schedule: Q01DX009 (ip), vehicle: Klucel (hydroxypropylcellulose) (HPC)): 155 % of control
T/C (dose: 512.0 mg/kg/injection, schedule: Q04DX003 (ip), vehicle: saline): 103 % of control
T/C (dose: 512.0 mg/kg/injection, schedule: Q08DX002 (ip), vehicle: saline): 106 % of control

O=C(C[n+]1ccc2ccccc2c1)c1ccc2ccccc2c1
T/C (dose: 12.5 mg/kg/injection, schedule: Q04DX003 (ip), vehicle: saline with Tween-80): 92 % of control
T/C (dose: 25.0 mg/kg/injection, schedule: Q04DX003 (ip), vehicle: saline with Tween-80): 86 % of control

Cc1cccc(C)c1NC(=O)CCl
T/C (dose: 100.0 mg/kg/injection, schedule: Q01DX001 (ip), vehicle: saline with Tween-80): 103 % of control
T/C (dose: 200.0 mg/kg/injection, schedule: Q01DX001 (ip), vehicle: saline with Tween-80): 100 % of control

CCOc1ccc(NC2OC(CO)C(O)C(O)C2O)cc1 (stereo unspecified)
T/C (dose: 100.0 mg/kg/injection, schedule: Q01DX001 (ip), vehicle: saline): 100 % of control
T/C (dose: 200.0 mg/kg/injection, schedule: Q01DX001 (ip), vehicle: saline): 108 % of control

FC(F)(F)c1ccc2nc(CI)c(CI)nc2c1
T/C (dose: 1.5 mg/kg/injection, schedule: Q01DX009 (ip), vehicle: saline with Tween-80): 104 % of control
T/C (dose: 3.0 mg/kg/injection, schedule: Q01DX009 (ip), vehicle: saline with Tween-80): 110 % of control
T/C (dose: 6.0 mg/kg/injection, schedule: Q01DX009 (ip), vehicle: saline with Tween-80): 96 % of control
T/C (dose: 12.0 mg/kg/injection, schedule: Q01DX009 (ip), vehicle: saline with Tween-80): 104 % of control
T/C (dose: 24.0 mg/kg/injection, schedule: Q01DX009 (ip), vehicle: saline with Tween-80): 88 % of control
